Assay results taken from patent publication US8865894B2, “Oxazolidin-2-one compounds and uses thereof” (Novartis AG, priority 2012, dated 2014).

Molecular target: T1, human PI3Kdelta p110 catalytic subunit (Rat-1 pBABEpuro Myr-HA-hp110 delta) (Homo sapiens, UniProt O00329)
T1 construct: Myr (myristoylation signal) (N); HA (N); expressed in transfected cells; host or cells: Rat-1
Assay: Cellular assay PI3Kdelta (p-Akt(S473) SureFire, Rat-1_PI3Kdelta cells)
Type: cell-based
Conditions: 1 h compound treatment, read-out: Rat1-PI3Kd/ IC50
Excerpt: AlphaScreen (Amplified Luminescent Proximity Homogeneous Assay, ALPHA, Perkin Elmer) is a non-radioactive bead-based proximity assay technology to study biomolecular interactions in a homogenous microtiter plate format. The brand name SureFire denotes AlphaScreen assays that are adapted to quantify the phosphorylation of endogenous cellular proteins in cell lysates, by using matched antibody pairs, which consist of an anti-phospho-kinase and an anti-kinase antibody. The assay allows characterization of kinase signaling in cells as well as measurement of kinase inhibitor effects. The AlphaScreen technology provides several advantages over standard assay techniques such as ELISA, as it avoids time-consuming washing procedures and reduces plate handling. Furthermore, it is miniaturizable at least to a 384-well format and provides sensitivity down to the femtomolar range, dependent on the affinity of the antibodies included in the individual AlphaScreen SureFire assay kit. High sensitivity is reached by an intrinsic amplification mechanism, which involves production of singlet oxygen molecules. SureFire assay kits are commercially available for specific targets and include pairs of validated antibodies (PerkinElmer). This report describes common procedures applied for AlphaScreen SureFire assays and respective semi-automated steps for routine kinase inhibitor profiling in cell-based assays.
The Rat-1 cell lines stably overexpressing activated PI3K class I isoforms Rat-1 pBABEpuro Myr-HA-hp110 delta (Rat-1_PI3Kdelta) and Rat-1 pBABEpuro Myr-HA-hp110alpha (Rat-1_PI3Kalpha) and Rat-1 pBABEpuro Myr-HA-hp110 beta (Rat-1_PI3beta) were prepared as described (Maira S M, Stauffer F, Brueggen J, Furet P, Schnell C, Fritsch C, Brachmann S, Chène P, de Pover A, Schoemaker K, Fabbro D, Gabriel D, Simonen M, Murphy L, Finan P, Sellers W, García-Echeverría C (2008), Mol Cancer Ther. 7:1851-63 and Maira S M, Pecchi S, Brueggen J, Huh K, Schnell C, Fritsch C, Nagel T, Wiesmann M, Brachmann S, Dorsch M, Chène P, Schoemaker K, De Pover A, Menezes D, Fabbro D, Sellers W, García-Echeverría C, Voliva C F (2011), Mol. Cancer Ther., accepted). All cell lines were cultivated in complete growth medium (DMEM high glucose, 10% (v/v) fetal bovine serum, 1% (v/v) MEM NEAA, 10 mM HEPES, 2 mM L-glutamine, puromycin (10 μg/mL for Rat-1_PI3Kdelta and Rat-1_PI3Kalpha, 4 ug/mL for Rat-1_PI3beta), 1% (v/v) Pen/Strep) to 90% confluency at 37° C./5% CO2/90% humidity in a humidified CO2 incubator and were split twice a week.
The following materials were used for p-AKT(S473) detection in Rat-1 cell lysates: Dulbecco's modified Eagle's medium (DMEM) high glucose (Gibco Invitrogen, Basel, Switzerland, Cat. No. 41965), Heat Inactivated Fetal Bovine Serum, Qualified (HI FBS; Gibco Invitrogen, Basel, Switzerland, Lot. No. 16140), MEM non essential amino acids (NEAA; Gibco Invitrogen, Basel, Switzerland, Cat. No. 11140), HEPES (Gibco Invitrogen, Basel, Switzerland, Cat. No. 15630), Penicillin/Streptomycin (Pen/Strep, 100×; Gibco Invitrogen, Basel, Switzerland, Cat. No. 15140-122), L-Glutamine (Gibco Invitrogen, Basel, Switzerland, Cat. No. 25030), Puromycin (Sigma Aldrich, Buchs, Switzerland, Cat. No. P9620), DMSO (MERCK, Dietikon, Switzerland, Cat. No. 8.02912.2500), H2O, MilliQ-H2O unless otherwise stated (MILLIPORE QGARDOOR1, Millipore, Zug, Switzerland), Bovine serum albumine (BSA; Sigma Aldrich, Buchs, Switzerland Cat. No. A8412), SureFire p-Akt 1/2 (Ser473) Assay Kit (PerkinElmer, Schwerzenbach, Switzerland, Cat. No. TGRAS50K).
The p-Akt(S473) SureFire assay measures the phosphorylation of endogenous cellular Akt 1/2 at Ser473 in cell lysates. Using Rat-1 cells stably expressing myr-HA-tagged versions of the human PI3Kdelta, PI3Kalpha, or PI3Kbeta p110 catalytic subunit isoforms, the assay was developed as a two-plate protocol in a 384-well format.

T1 sequence (O00329 whole entry): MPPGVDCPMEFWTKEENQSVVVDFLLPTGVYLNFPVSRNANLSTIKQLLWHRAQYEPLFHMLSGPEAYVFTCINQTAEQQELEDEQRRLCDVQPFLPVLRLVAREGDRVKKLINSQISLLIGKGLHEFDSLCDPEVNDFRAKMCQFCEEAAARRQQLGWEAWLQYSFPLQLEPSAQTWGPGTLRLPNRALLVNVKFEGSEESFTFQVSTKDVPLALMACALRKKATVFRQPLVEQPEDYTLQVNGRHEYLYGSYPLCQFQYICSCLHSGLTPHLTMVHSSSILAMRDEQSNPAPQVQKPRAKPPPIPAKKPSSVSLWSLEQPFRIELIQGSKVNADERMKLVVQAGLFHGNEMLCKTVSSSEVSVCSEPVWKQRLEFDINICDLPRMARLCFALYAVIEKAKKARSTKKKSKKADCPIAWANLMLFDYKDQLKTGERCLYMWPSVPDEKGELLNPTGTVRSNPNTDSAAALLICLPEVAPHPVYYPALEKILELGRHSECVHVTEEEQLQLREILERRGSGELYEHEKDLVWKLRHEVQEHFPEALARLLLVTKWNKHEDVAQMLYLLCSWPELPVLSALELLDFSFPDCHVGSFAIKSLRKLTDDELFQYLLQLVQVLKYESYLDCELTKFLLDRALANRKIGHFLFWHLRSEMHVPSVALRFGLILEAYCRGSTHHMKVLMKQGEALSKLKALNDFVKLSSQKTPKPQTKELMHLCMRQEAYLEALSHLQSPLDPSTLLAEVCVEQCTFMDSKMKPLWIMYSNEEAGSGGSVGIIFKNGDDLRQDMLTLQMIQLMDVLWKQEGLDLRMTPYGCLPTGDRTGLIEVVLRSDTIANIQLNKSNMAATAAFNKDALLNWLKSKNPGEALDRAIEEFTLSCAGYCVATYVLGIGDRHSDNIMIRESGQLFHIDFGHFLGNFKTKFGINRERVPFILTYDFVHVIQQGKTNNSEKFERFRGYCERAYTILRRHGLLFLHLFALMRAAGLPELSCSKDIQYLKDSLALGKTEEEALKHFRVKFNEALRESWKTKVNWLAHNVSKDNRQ
T1 sequence (Q63787 whole entry partner): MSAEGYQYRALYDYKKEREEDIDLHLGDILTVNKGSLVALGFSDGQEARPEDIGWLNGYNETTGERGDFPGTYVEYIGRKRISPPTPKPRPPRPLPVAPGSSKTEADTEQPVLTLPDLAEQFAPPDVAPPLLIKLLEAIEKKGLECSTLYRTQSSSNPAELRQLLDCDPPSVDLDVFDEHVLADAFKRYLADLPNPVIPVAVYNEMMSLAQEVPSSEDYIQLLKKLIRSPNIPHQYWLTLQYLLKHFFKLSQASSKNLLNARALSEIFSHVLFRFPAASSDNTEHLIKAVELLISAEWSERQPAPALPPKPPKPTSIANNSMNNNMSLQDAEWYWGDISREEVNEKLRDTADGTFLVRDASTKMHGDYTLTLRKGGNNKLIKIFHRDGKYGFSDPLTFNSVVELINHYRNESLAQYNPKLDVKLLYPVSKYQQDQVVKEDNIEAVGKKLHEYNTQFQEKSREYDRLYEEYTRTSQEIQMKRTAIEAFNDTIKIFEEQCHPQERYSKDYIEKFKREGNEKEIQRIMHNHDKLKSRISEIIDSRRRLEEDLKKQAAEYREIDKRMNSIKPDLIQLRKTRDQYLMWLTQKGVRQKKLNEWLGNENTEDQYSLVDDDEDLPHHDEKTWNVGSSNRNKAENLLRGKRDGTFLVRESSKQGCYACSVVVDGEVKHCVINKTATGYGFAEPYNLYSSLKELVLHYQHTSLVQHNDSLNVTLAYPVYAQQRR

| IC50 [µM] | Structure (SMILES) |
| --- | --- |
| 0.111 | Nc1ncc(-c2cc(N3C[C@H](CO)OC3=O)nc(N3CCOCC3)n2)c(C(F)(F)F)n1 [Example 20, (R)-3-(2′-Amino-2-morpholin-4-yl-4′-trifluoromethyl-[4,5′]bipyrimidinyl-6-yl)-5-hydroxymethyl-oxazolidin-2-one] |
| 0.061 | Nc1ncc(-c2cc(N3C(=O)O[C@H]4COC[C@H]43)nc(N3CCOCC3)n2)c(C(F)(F)F)n1 [Example 21, (3aR,6aR)-3-(2′-amino-2-morpholino-4′-(trifluoromethyl)-[4,5′-bipyrimidin]-6-yl)-tetrahydrofuro[3,4-d]oxazol-2(3H)-one] |
| 0.016 | C[C@H]1[C@@H](CCO)OC(=O)N1c1cc(-c2cnc(N)nc2C(F)(F)F)nc(N2CCOCC2)n1 [Example 23, (4S,5R)-3-(2′-Amino-2-morpholino-4′-(trifluoromethyl)-[4,5′-bipyrimidin]-6-yl)-5-(2-hydroxyethyl)-4-methyloxazolidin-2-one] |
